# Test results taken from publication PMC10539501 (Nature Communications, 2023).
# Starred links: 1 amine or outer side, 2 acyl side, 3 side chain; linkers in the order of their positions; H or OH if unused. Non-standard residues stand in square brackets, D forms with d. Residues, ends and D or L forms follow the SMILES beside them. X13 = CC[C@H](C)[C@H](NC(=S)[C@@H]1CCCN1[*:1])C(=O)[*:2]; X17 = CC[C@H](C)[C@H](N[*:1])C(=S)N1CCC[C@H]1C(=O)[*:2]; AlaΨ(CSNH)Ala = C[C@H](NC(=S)[C@H](C)N[*:1])C(=O)[*:2]; X11 = CC[C@H](C)[C@H](N[*:1])C(=S)N[C@@H](C)C(=O)[*:2]; X2 = CC(C)C[C@H](NC(=S)[C@@H](CC(C)C)N[*:1])C(=O)[*:2]; X9 = O=C([C@@H]1CCCN1C(=S)[C@H](Cc1ccccc1)N[*:1])[*:2]; X14 = C[C@H](N[*:1])C(=S)N[C@@H](Cc1ccccc1)C(=O)[*:2]; X15 = CC(C)C[C@@H](NC(=S)[C@H]1CCCN1[*:1])C(=O)[*:2]; X19 = CC(C)C[C@H](NC(=S)[C@@H]1CCCN1[*:1])C(=O)[*:2]; X18 = C[C@@H](N[*:1])C(=S)N1CCC[C@H]1C(=O)[*:2]; X20 = C[C@H](NC(=S)[C@@H](C)N[*:1])C(=O)[*:2]
# Legend:
# [1] = physchem; details: pH 7.4
# [2] = Octanol-water distribution coefficient (logD7.4); details: octanol/water, pH 7.4
# [3] = PAMPA passive permeability; format: in vitro ADME;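 further: passive permeability across an artificial membrane in 96-well pre-coated PAMPA plates, which lack transporters and efflux systems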
# Procedure: Encouraged by this, the passive permeability of the analogs was evaluated using an artificial membrane (PAMPA), which measures permeability of compounds in the absence of transporters and efflux systems[32].
# 96-well BD Corning® pre-coated PAMPA plates were used following the supplier’s protocol, details in Supplementary Information.
# [4] = format: physicochemical
# [5] = system: Caco-2 cells; assay: in vitro; format: in vitro ADME, human; details: Caco-2
# Procedure: (§1) The Caco-2 cell (HTB-37^TM from ATCC, procured from NCCS, Pune) monolayer was washed and pre-incubated at 37 °C and 5% CO2 for 30 min with HBSS-HEPES buffer containing 1% DMSO prior to experimentation. The assay was performed 21 days post-seeding of cells. TEER values were measured before starting and after the completion of the assay. Acceptor and donor well concentrations of the peptides and controls were assessed through LC-MS/MS.
# [6] = in vitro; format: in vitro ADME, human; details: human; for Papp A→B: Caco-2, Papp A-B avg
# Procedure: as §1
# 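Wherever Papp A-B avg (second block) is given: Caco-2 monolayers used 21 days after seeding in HBSS-HEPES buffer with 1% DMSO, donor and acceptor levels quantified by LC-MS/MS, TEER checked before and after.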
# 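Wherever Papp A-B set 1 (second block) is given: Caco-2 monolayers used 21 days after seeding in HBSS-HEPES buffer with 1% DMSO, donor and acceptor levels quantified by LC-MS/MS, TEER checked before and after.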
# 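Wherever Papp A-B set 2 (second block) is given: Caco-2 monolayers used 21 days after seeding in HBSS-HEPES buffer with 1% DMSO, donor and acceptor levels quantified by LC-MS/MS, TEER checked before and after.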
# 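Wherever Papp B-A avg (second block) is given: Caco-2 monolayers used 21 days after seeding in HBSS-HEPES buffer with 1% DMSO, donor and acceptor levels quantified by LC-MS/MS, TEER checked before and after.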
smiles,measurement,setting,value
N[C@@H](Cc1ccccc1)C(=O)NCC(=O)O [compound 3] (H-Phe-Gly-OH),logD,[1],-2.22
NCCCC[C@H](NC(=S)[C@@H](N)Cc1ccccc1)C(=O)O [1a],logD,[1],-2.12
C[C@@H]1NC(=O)[C@H](C)NC(=O)[C@H](C)NC(=S)[C@@H](C)NC(=O)[C@H](C)NC(=O)[C@H](C)NC1=O [9a] (cyclo([X20]AAAA)),logD,[2],-0.67
N[C@@H](Cc1ccccc1)C(=S)N[C@@H](Cc1c[nH]c2ccccc12)C(=O)O [7a],logD,[1],0.13
CN(C(=O)[C@@H](N)Cc1ccccc1)[C@@H](Cc1c[nH]c2ccccc12)C(=O)O [7b],logD,[1],0.21
CC[C@H](C)[C@@H]1NC(=O)[C@@H]2CCCN2C(=O)[C@H]([C@@H](C)CC)NC(=O)[C@@H]2CCCN2C(=O)[C@H](Cc2ccccc2)NC(=O)[C@H](C)NC(=S)[C@H](C)NC1=O [11b] (cyclo(FPIPI[AlaΨ(CSNH)Ala])),logD,[1],0.28
same,Papp,[3]; Pe (PAMPA vs logD7.4),0.42 ×10⁻⁶ cm/s
same,Papp,[3]; Pe Avg,0.4 ×10⁻⁶ cm/s
same,% solubility,[4],93%
N[C@@H](Cc1ccccc1)C(=S)N[C@@H](CCC(=O)O)C(=O)O [2a],logD,[1],-1.45
CC(C)C[C@@H]1NC(=O)[C@@H]2CCCN2C(=O)[C@@H](C)NC(=O)[C@H](CC(C)C)NC(=S)[C@@H](CC(C)C)NC(=O)[C@H]2CCCN2C(=O)[C@H](CC(C)C)NC(=O)[C@@H](CC(C)C)NC1=O [12d] (cyclo(L[dL]L[dP][X2][dA]P)),logD,[1],1.82
same,Papp,[3]; Pe Avg,8.9 ×10⁻⁶ cm/s
same,% solubility,[4],25%
C[C@H](NC(=S)[C@@H](N)Cc1ccccc1)C(=O)O [4a],logD,[1],-1.76
C[C@@H]1NC(=O)[C@H](C)NC(=O)[C@H](C)NC(=S)[C@@H](C)NC(=O)[C@H](C)NC1=O [8a],logD,[2],-0.32
C[C@@H]1NC(=O)[C@H](C)NC(=O)[C@@H](C)NC(=S)[C@H](C)NC(=O)[C@H](C)NC1=O [8e],logD,[2],-0.14
CC(C)[C@H](NC(=O)[C@@H](N)Cc1ccccc1)C(=O)O [compound 5] (H-Phe-Val-OH),logD,[1],-1.28
CC(C)C[C@@H]1NC(=O)[C@@H](CC(C)C)NC(=O)[C@H]2CCCN2C(=O)[C@H](CC(C)C)NC(=O)[C@@H](CC(C)C)NC(=O)[C@H](CC(C)C)NC(=O)[C@@H]2CCCN2C(=S)[C@@H](C)NC1=O [12f] (cyclo(L[dL]L[dP][dL]L[X18])),logD,[1],1.58
same,Papp,[3]; Pe Avg,6.4 ×10⁻⁶ cm/s
same,% solubility,[4],30%
"CC(C)NCC(O)COc1cccc2ccccc12 (stereo not drawn) [Propranolol, reference compound]",Papp A-B avg (second block),[5],16.6 ×10⁻⁶ cm/s
same,Papp A-B set 1 (second block),[5],17.28 ×10⁻⁶ cm/s
same,Papp A-B set 2 (second block),[5],15.87 ×10⁻⁶ cm/s
same,Papp B-A avg (second block),[5],34.1 ×10⁻⁶ cm/s
same,Papp B-A set 1 (second block),[5],37.6 ×10⁻⁶ cm/s
same,Papp B-A set 2 (second block),[5],30.7 ×10⁻⁶ cm/s
same,Papp A→B,[6],16.6 ×10⁻⁶ cm/s
CC(C)C[C@@H]1NC(=O)[C@@H](CC(C)C)NC(=S)[C@H]2CCCN2C(=O)[C@H](CC(C)C)NC(=O)[C@@H](CC(C)C)NC(=O)[C@H](CC(C)C)NC(=O)[C@@H]2CCCN2C(=O)[C@@H](C)NC1=O [12c] (cyclo(L[dA]PL[dL]L[X15])),logD,[1],2.3
same,Papp,[3]; Pe Avg,1.4 ×10⁻⁶ cm/s
same,% solubility,[4],15%
NCCCC[C@H](NC(=O)[C@@H](N)Cc1ccccc1)C(=O)O [compound 1],logD,[1],-2.88
"C[C@@H]1NC(=O)[C@H](C)NC(=O)[C@H](C)NC(=O)[C@@H](C)NC(=O)[C@H](C)NC1=O [compound 8, cyclo(-D-Ala-L-Ala4-)]",logD,[2],-1.46
"C[C@H]1O[C@@H](O[C@H]2[C@@H](O)C[C@H](O[C@H]3[C@@H](O)C[C@H](O[C@H]4CC[C@@]5(C)[C@H](CC[C@@H]6[C@@H]5C[C@@H](O)[C@]5(C)[C@@H](C7=CC(=O)OC7)CC[C@]65O)C4)O[C@@H]3C)O[C@@H]2C)C[C@H](O)[C@@H]1O [Digoxin, reference compound]",Papp A-B + Elacridar avg,[5],1.5 ×10⁻⁶ cm/s
same,Papp A-B avg (second block),[5],0.72 ×10⁻⁶ cm/s
same,Papp A-B set 1 (second block),[5],0.79 ×10⁻⁶ cm/s
same,Papp A-B set 2 (second block),[5],0.65 ×10⁻⁶ cm/s
same,Papp B-A + Elacridar avg,[5],6.2 ×10⁻⁶ cm/s
same,Papp B-A avg (second block),[5],29.5 ×10⁻⁶ cm/s
same,Papp B-A set 1 (second block),[5],28.5 ×10⁻⁶ cm/s
same,Papp B-A set 2 (second block),[5],30.4 ×10⁻⁶ cm/s
same,Papp A→B,[6],0.721 ×10⁻⁶ cm/s
same,Papp B→A,"[6]; Caco-2, Papp B-A avg",29.5 ×10⁻⁶ cm/s
C[C@@H]1NC(=O)[C@H](C)NC(=O)[C@H](C)NC(=S)[C@H](C)NC(=O)[C@@H](C)NC(=O)[C@H](C)NC1=O [9b],logD,[2],-0.7
C[C@@H]1NC(=O)[C@H](C)NC(=O)[C@@H](C)NC(=O)[C@H](C)NC(=S)[C@H](C)NC(=O)[C@H](C)NC1=O [9e],logD,[2],-0.54
CC[C@H](C)[C@@H]1NC(=O)[C@@H]2CCCN2C(=O)[C@H]([C@@H](C)CC)NC(=S)[C@@H]2CCCN2C(=O)[C@H](Cc2ccccc2)NC(=O)[C@H](C)NC(=O)[C@H](C)NC1=O [11e] (cyclo(AAF[X13]PI)),logD,[1],0.58
same,Papp,[3]; Pe (PAMPA vs logD7.4),0.83 ×10⁻⁶ cm/s
same,Papp,[3]; Pe Avg,0.8 ×10⁻⁶ cm/s
same,% solubility,[4],65%
C[C@@H]1NC(=O)[C@H](C)NC(=O)[C@@H](C)NC(=O)[C@H](C)NC(=S)[C@H](C)NC1=O [8d],logD,[2],-0.23
N[C@@H](Cc1ccccc1)C(=O)N[C@@H](Cc1c[nH]c2ccccc12)C(=O)O [compound 7] (H-Phe-Trp-OH),logD,[1],-0.65
"C[C@@H]1NC(=O)[C@H](C)NC(=O)[C@H](C)NC(=O)[C@@H](C)NC(=O)[C@H](C)NC(=O)[C@H](C)NC1=O [compound 9, cyclo(-D-Ala-L-Ala5-)]",logD,[2],-2.48
C[C@@H]1NC(=O)[C@H](C)NC(=S)[C@H](C)NC(=O)[C@@H](C)NC(=O)[C@H](C)NC1=O [8b],logD,[2],-0.14
CC[C@H](C)[C@@H]1NC(=O)[C@@H]2CCCN2C(=O)[C@H]([C@@H](C)CC)NC(=O)[C@@H]2CCCN2C(=O)[C@H](Cc2ccccc2)NC(=S)[C@H](C)NC(=O)[C@H](C)NC1=O [11c] (cyclo(A[X14]PIPI)),logD,[1],0.43
same,Papp,[3]; Pe Avg,1 ×10⁻⁶ cm/s
same,% solubility,[4],76%
CSCC[C@H](NC(=O)[C@@H](N)Cc1ccccc1)C(=O)O [compound 6] (H-Phe-Met-OH),logD,[1],-1.41
C[C@@H](C(=O)O)N(C)C(=O)[C@@H](N)Cc1ccccc1 [4b],logD,[1],-1.76
N[C@@H](Cc1ccccc1)C(=S)NCC(=O)O [3a],logD,[1],-1.61
CC(C)C[C@@H]1NC(=O)[C@@H](CC(C)C)NC(=O)[C@H]2CCCN2C(=O)[C@H](CC(C)C)NC(=S)[C@@H](CC(C)C)NC(=O)[C@H](CC(C)C)NC(=O)[C@@H]2CCCN2C(=O)[C@@H](C)NC1=O [12a] (cyclo(L[dA]PL[X2][dP][dL])),logD,[1],1.34
same,Papp,[3]; Pe Avg,4.4 ×10⁻⁶ cm/s
same,% solubility,[4],69%
CC(C)[C@@H](C(=O)O)N(C)C(=O)[C@@H](N)Cc1ccccc1 [5b],logD,[1],-0.62
CC(C)[C@H](NC(=S)[C@@H](N)Cc1ccccc1)C(=O)O [5a],logD,[1],-0.92
CSCC[C@H](NC(=S)[C@@H](N)Cc1ccccc1)C(=O)O [6a],logD,[1],-0.79
CN(C(=O)[C@@H](N)Cc1ccccc1)[C@@H](CCC(=O)O)C(=O)O [2b],logD,[1],-2.14
CC[C@H](C)[C@@H]1NC(=O)[C@@H]2CCCN2C(=S)[C@H]([C@@H](C)CC)NC(=O)[C@@H]2CCCN2C(=O)[C@H](Cc2ccccc2)NC(=O)[C@H](C)NC(=O)[C@H](C)NC1=O [11f] (cyclo(AAFP[X17]I)),logD,[1],0.37
same,Papp,[3]; Pe Avg,1.1 ×10⁻⁶ cm/s
same,% solubility,[4],76%
C[C@@H]1NC(=O)[C@H](C)NC(=S)[C@H](C)NC(=O)[C@H](C)NC(=O)[C@@H](C)NC1=O [8c],logD,[2],-0.19
C[C@@H]1NC(=O)[C@H](C)NC(=S)[C@H](C)NC(=O)[C@H](C)NC(=O)[C@@H](C)NC(=O)[C@H](C)NC1=O [9c],logD,[2],-0.59
N[C@@H](Cc1ccccc1)C(=O)N[C@@H](CCC(=O)O)C(=O)O [compound 2] (H-Phe-Glu-OH),logD,[1],-2.56
C[C@@H]1NC(=O)[C@H](C)NC(=O)[C@H](C)NC(=O)[C@@H](C)NC(=S)[C@H](C)NC(=O)[C@H](C)NC1=O [9f],logD,[2],-0.24
CC[C@H](C)[C@@H]1NC(=S)[C@@H]2CCCN2C(=O)[C@H]([C@@H](C)CC)NC(=O)[C@@H]2CCCN2C(=O)[C@H](Cc2ccccc2)NC(=O)[C@H](C)NC(=O)[C@H](C)NC1=O [11g] (cyclo(AAFPI[X13])),logD,[1],0.29
same,Papp,[3]; Pe (PAMPA vs logD7.4),0.35 ×10⁻⁶ cm/s
same,Papp,[3]; Pe Avg,0.3 ×10⁻⁶ cm/s
same,% solubility,[4],93%
C[C@@H]1NC(=O)[C@H](C)NC(=O)[C@@H](C)NC(=O)[C@H](C)NC(=O)[C@H](C)NC(=S)[C@H](C)NC1=O [9d],logD,[2],-0.67
CSCC[C@@H](C(=O)O)N(C)C(=O)[C@@H](N)Cc1ccccc1 [6b],logD,[1],-1.05
CC(C)C[C@@H]1NC(=O)[C@@H](CC(C)C)NC(=O)[C@H]2CCCN2C(=O)[C@H](CC(C)C)NC(=O)[C@@H](CC(C)C)NC(=O)[C@H](CC(C)C)NC(=S)[C@@H]2CCCN2C(=O)[C@@H](C)NC1=O [12g] (cyclo(L[dA][X19][dL]L[dP][dL])),logD,[1],1.59
same,Papp,[3]; Pe Avg,10.2 ×10⁻⁶ cm/s
same,% solubility,[4],46%
CN(C(=O)[C@@H](N)Cc1ccccc1)[C@@H](CCCCN)C(=O)O [1b],logD,[1],-1.95
CC[C@H](C)[C@@H]1NC(=O)[C@@H]2CCCN2C(=O)[C@H]([C@@H](C)CC)NC(=O)[C@@H]2CCCN2C(=S)[C@H](Cc2ccccc2)NC(=O)[C@H](C)NC(=O)[C@H](C)NC1=O [11d] (cyclo(AA[X9]IPI)),logD,[1],0.33
same,Papp,[3]; Pe Avg,0.4 ×10⁻⁶ cm/s
same,% solubility,[4],85%
CC[C@H](C)[C@@H]1NC(=O)[C@@H]2CCCN2C(=O)[C@H](Cc2ccccc2)NC(=O)[C@H](C)NC(=O)[C@H](C)NC(=S)[C@H]([C@@H](C)CC)NC(=O)[C@@H]2CCCN2C1=O [11a] (cyclo(AFPIP[X11])),logD,[1],0.55
same,Pe Avg,[3],4.6 ×10⁻⁶ cm/s
same,Papp,[3]; Pe (PAMPA vs logD7.4),4.67 ×10⁻⁶ cm/s
same,% solubility,[4],74%
CN(CC(=O)O)C(=O)[C@@H](N)Cc1ccccc1 [3b],logD,[1],-1.73
